Measurements reported in ChEMBL document CHEMBL1149855, “Dihydrobenzo[c]phenanthridine alkaloids from stem bark of Zanthoxylum nitidum” (J Nat Prod, 2008).
Activity calls are given as the source filed them.

How the values were obtained:
Type in all cases: functional, cell-based
MCF7 = assay: Cytotoxicity against human MCF7 cells up to 29.2 ug/mL after 72 hrs by MTS reduction assay
SF-268 = assay: Cytotoxicity against human SF268 cells up to 29.2 ug/mL after 72 hrs by MTS reduction assay
NCI-H460 = assay: Cytotoxicity against human NCI-H460 cells up to 29.2 ug/mL after 72 hrs by MTS reduction assay

Measured: Activity

COc1ccc2c(c1OC)[C@H](CC1=C[C@@H]3[C@@H](CC1)[C@](C)(OC)CC[C@H]3C(C)C)N(C)c1c-2ccc2cc3c(cc12)OCO3
inactive: MCF7 | SF-268 | NCI-H460

COc1ccc2c(c1OC)[C@@H](CC1=C[C@@H]3[C@@H](CC1)[C@@](C)(OC)CC[C@H]3C(C)C)N(C)c1c-2ccc2cc3c(cc12)OCO3
inactive: MCF7 | SF-268 | NCI-H460

COc1ccc2c(c1OC)[C@H](CC1=C[C@H]3[C@H](C(C)C)CC[C@](C)(OC)[C@H]3CC1)N(C)c1c-2ccc2cc3c(cc12)OCO3
inactive: MCF7 | SF-268 | NCI-H460

COc1ccc2c(c1OC)[C@@H](CC1=C[C@@H]3[C@@H](CC1)[C@](C)(OC)CC[C@H]3C(C)C)N(C)c1c-2ccc2cc3c(cc12)OCO3
inactive: MCF7 | SF-268 | NCI-H460

COc1ccc2c(c1OC)[C@@H](CC1=C[C@H]3[C@H](C(C)C)CC[C@](C)(OC)[C@H]3CC1)N(C)c1c-2ccc2cc3c(cc12)OCO3
inactive: MCF7 | SF-268 | NCI-H460
